Reference: patent US20120094964A1, “SULFAMOYL BENZOIC ACID DERIVATIVES AS TRPM8 ANTAGONISTS” (priority 2009, published 2012)

Target: T1, human TRPM8 (Homo sapiens, UniProt Q7Z2W7)
T1 construct: expressed in transfected cells
Assay: In Vitro human TRPM8 Functional Assay (intracellular Ca2+, Fluo4, FDSS, menthol activation)
Assay type: cell-based
Settings: HEK293 cells stably expressing human TRPM8; activation with L-(-)-Menthol; 11-point dose-response
Protocol: In Vitro human TRPM8 Functional Assay
The functional activity of compounds was determined by measuring changes in intracellular calcium concentration using a Ca^2+-sensitive fluorescent dye, Fluo4 (Molecular Probes). The changes in fluorescent signal were monitored by the cell imaging technology by Hamamatsu Photonics's Functional Drug Screening System (FDSS).
HEK293 cells stably expressing human TRPM8 were grown in T175 flasks, in a 5% CO2 humidified incubator to about 80% confluence. Media composition consisted of Dulbecco's Modified Eagle Medium (high glucose), 10% fetal calf serum (FCS), 100 units/ml Penicillin, 100 microg/ml Streptomycin and 600 microg/ml Geneticine.
1. Plate-out HEK293-TRPM8 cells (40 microL medium containing 30,000 cells per well) into poly-D-lysine coated 384-well plates (BD FALCON) at 24 hours prior to assay.
1. […] 2. […] 3. Place the plate at room temperature in dark for 1 hour. 4. […] 5. Add 20 microL of compound solutions into each well and leave the plate for 5 minutes under the dark at room temperature. 6. Measure activity by FDSS as follows: • Set the assay plate on the stacker of FDSS • Start the detection of fluorescence intensity • After 30 sec, add 20 microL of 90 microM L-(−)-Menthol
IC50 values for compounds of the present invention were determined from 11-point dose-response studies. Curves were generated using the average of duplicate wells for each data point. Finally, the IC50 values are calculated with the best-fit dose curve determined by XLfit (ID Business Solutions Ltd.).

T1 sequence (Q7Z2W7 whole entry): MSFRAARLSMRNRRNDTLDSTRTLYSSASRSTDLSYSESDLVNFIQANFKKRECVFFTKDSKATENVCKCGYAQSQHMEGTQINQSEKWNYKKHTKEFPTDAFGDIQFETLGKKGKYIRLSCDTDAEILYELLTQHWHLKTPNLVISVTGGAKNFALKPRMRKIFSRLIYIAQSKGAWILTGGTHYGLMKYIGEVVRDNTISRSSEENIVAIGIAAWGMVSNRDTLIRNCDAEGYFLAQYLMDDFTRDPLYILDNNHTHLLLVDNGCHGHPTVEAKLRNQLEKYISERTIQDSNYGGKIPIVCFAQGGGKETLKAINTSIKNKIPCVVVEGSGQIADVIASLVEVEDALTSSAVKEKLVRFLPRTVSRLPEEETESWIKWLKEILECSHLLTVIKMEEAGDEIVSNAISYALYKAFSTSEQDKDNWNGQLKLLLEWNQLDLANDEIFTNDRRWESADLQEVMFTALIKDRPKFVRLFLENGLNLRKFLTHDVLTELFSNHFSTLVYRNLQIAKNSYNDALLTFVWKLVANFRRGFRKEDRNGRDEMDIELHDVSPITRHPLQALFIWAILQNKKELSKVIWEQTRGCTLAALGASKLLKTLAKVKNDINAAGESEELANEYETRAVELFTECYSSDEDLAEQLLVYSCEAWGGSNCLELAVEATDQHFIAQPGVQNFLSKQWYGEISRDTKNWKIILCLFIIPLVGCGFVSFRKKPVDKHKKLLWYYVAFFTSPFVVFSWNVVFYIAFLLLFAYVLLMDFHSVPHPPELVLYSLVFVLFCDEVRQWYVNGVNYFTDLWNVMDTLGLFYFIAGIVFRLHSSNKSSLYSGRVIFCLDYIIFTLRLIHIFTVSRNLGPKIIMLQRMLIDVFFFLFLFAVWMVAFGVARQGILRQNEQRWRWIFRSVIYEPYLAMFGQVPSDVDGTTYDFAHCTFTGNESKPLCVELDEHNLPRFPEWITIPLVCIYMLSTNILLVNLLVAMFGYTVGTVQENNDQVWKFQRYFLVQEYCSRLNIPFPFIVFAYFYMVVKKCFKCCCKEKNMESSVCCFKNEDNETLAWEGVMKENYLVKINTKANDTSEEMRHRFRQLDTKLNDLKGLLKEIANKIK

Structure (SMILES) | IC50 [µM]
COc1ccc(N(C(C)c2ccccc2OC)S(=O)(=O)c2ccc(C)cc2)cc1 (stereo not drawn) [Example 89, N-(4-Methoxyphenyl)-N-(1-(2-methoxyphenyl)ethyl)-4-methylbenzene-sulfonamide] | 1 to 10
COc1cccc(N(C(C)c2cc(OC)ccc2OC)S(=O)(=O)c2ccccc2F)c1 (stereo not drawn) [Example 90, N-(1-(2,5-Dimethoxyphenyl)ethyl)-2-fluoro-N-(3-methoxyphenyl)benzene-sulfonamide] | 1 to 10
Cc1cccc(N(C(C)c2ccccc2F)S(=O)(=O)c2ccccc2F)c1 (stereo not drawn) [Example 91, 2-Fluoro-N-(1-(2-fluoro-phenyl)ethyl)-N-m-tolyl benzenesulfonamide] | 1 to 10
COc1cccc(N(C(C)c2ccccc2F)S(=O)(=O)c2ccccc2F)c1 (stereo not drawn) [Example 92, 2-Fluoro-N-(1-(2-fluorophenyl)ethyl)-N-(3-methoxyphenyl)benzene-sulfonamide] | 1 to 10
COc1ccc(N(C(C)c2ccccc2OC)S(=O)(=O)c2ccccc2F)cc1OC (stereo not drawn) [Example 93, N-(3,4-Dimethoxyphenyl)-2-fluoro-N-(1-(2-methoxy-phenyl)ethyl)benzene-sulfonamide] | 1 to 10
COc1cccc(N(C(C)c2ccccc2)S(=O)(=O)c2ccc(F)c(Cl)c2)c1 (stereo not drawn) [Example 94, 3-Chloro-4-fluoro-N-(3-methoxyphenyl)-N-(1-phenylethyl)benzene-sulfonamide] | 1 to 10
COc1cccc(N(C(C)c2ccccc2C)S(=O)(=O)c2ccc(C)c(Cl)c2)c1 (stereo not drawn) [Example 95, 3-Chloro-N-(3-methoxy-phenyl)-4-methyl-N-(1-o-tolylethyl)benzene-sulfonamide] | 10 to 30
COc1ccc(OC)c(C(C)N(c2ccc(C)cc2)S(=O)(=O)c2ccc(F)cc2C)c1 (stereo not drawn) [Example 96, N-(1-(2,5-Dimethoxyphenyl)ethyl)-4-fluoro-2-methyl-N-p-tolylbenzenesulfonamide] | 1 to 10
COc1ccc(N(C(C)c2ccccc2F)S(=O)(=O)c2ccc(F)c(Cl)c2)cc1 (stereo not drawn) [Example 97, 3-Chloro-4-fluoro-N-(1-(2-fluorophenyl)ethyl)-N-(4-methoxyphenyl) benzenesulfonamide] | 1 to 10
Cc1cccc(N(C(C)c2ccccc2F)S(=O)(=O)c2ccc(F)cc2C)c1 (stereo not drawn) [Example 98, 4-Fluoro-N-(1-(2-fluorophenyl)ethyl)-2-methyl-N-m-tolylbenzenesulfonamide] | 1 to 10
Cc1cccc(N(C(C)c2ccccc2F)S(=O)(=O)c2cc(F)ccc2C)c1 (stereo not drawn) [Example 99, 5-Fluoro-N-(1-(2-fluoro-phenyl)ethyl)-2-methyl-N-m-tolylbenzenesulfonamide] | 1 to 10
Cc1cccc(N(C(C)c2ccccc2F)S(=O)(=O)c2ccccc2C)c1 (stereo not drawn) [Example 100, N-(1-(2-Fluorophenyl)ethyl)-2-methyl-N-tolyl benzenesulfonamide] | 1 to 10
COc1cccc(C(C)N(c2ccccc2)S(=O)(=O)c2ccc(C)c(F)c2)c1 (stereo not drawn) [Example 101, 3-Fluoro-N-(1-(3-methoxyphenyl)ethyl)-4-methyl-N-phenylbenzene-sulfonamide] | 1 to 10
COc1cccc(C(C)N(c2cccc(OC)c2)S(=O)(=O)c2ccc(C)c(Cl)c2)c1 (stereo not drawn) [Example 102, 3-Chloro-N-(3-methoxyphenyl)-N-(1-(3-methoxy-phenyl)ethyl)-4-methyl benzenesulfonamide] | 1 to 10
COc1cccc(C(C)N(c2cccc(OC)c2)S(=O)(=O)c2ccc(C)c(F)c2)c1 (stereo not drawn) [Example 103, 3-Fluoro-N-(3-methoxyphenyl)-N-(1-(3-methoxy-phenyl)ethyl)-4-methyl benzenesulfonamide] | 1 to 10
COc1ccc(N(C(C)c2ccccc2OC)S(=O)(=O)c2ccc(C)c(Cl)c2)cc1 (stereo not drawn) [Example 104, 3-Chloro-N-(4-methoxyphenyl)-N-(1-(2-methoxy-phenyl)ethyl)-4-methyl benzenesulfonamide] | 10 to 30
COc1ccccc1C(C)N(c1cccc(F)c1)S(=O)(=O)c1ccc(C)c(Cl)c1 (stereo not drawn) [Example 105, 3-Chloro-N-(3-fluorophenyl)-N-(1-(2-methoxyphenyl)ethyl)-4-methylbenzene-sulfonamide] | 1 to 10
Cc1ccc(S(=O)(=O)N(Cc2ccccc2)c2ccccn2)cc1 [Example 106, N-Benzyl-4-methyl-N-(pyridin-2-yl) benzenesulfonamide] | 1 to 10
CC(=O)Nc1ccc(S(=O)(=O)N(Cc2ccccc2)c2ccccn2)cc1 [Example 107, N-(4-(N-Benzyl-N-(pyridin-2-yl)sulfamoyl)phenyl)acetamide] | 1 to 10
O=S(=O)(c1ccc(F)cc1)N(Cc1ccccc1)c1ccccn1 [Example 108, N-Benzyl-4-fluoro-N-(pyridin-2-yl)benezene-sulfonamide] | 1 to 10
O=S(=O)(c1cc(Cl)ccc1Cl)N(Cc1ccccc1)c1ccccn1 [Example 109, N-Benzyl-2,5-dichloro-N-(pyridin-2-yl)benzene sulfonamide] | 1 to 10

Structure (SMILES) | IC50 [µM]
O=C(O)c1ccc(Cl)c(S(=O)(=O)N(Cc2ccccc2)c2ccc(Cl)cc2)c1 [Example 110, 3-(N-Benzyl-N-(4-chlorophenyl)sulfamoyl)-4-chlorobenzoic acid] | 1 to 10
O=C(O)c1cccc(S(=O)(=O)N(Cc2ccccc2)c2cccc(C(F)(F)F)c2)c1 [Example 111, 3-(N-Benzyl-N-(3-(trifluoromethyl)phenyl)sulfamoyl)benzoic acid] | 1 to 10
O=C(O)c1cccc(S(=O)(=O)N(Cc2ccccc2)c2ccccc2Cl)c1 [Example 112, 3-(N-Benzyl-N-(2-chlorophenyl)sulfamoyl) benzoic acid] | 10 to 30
COc1ccc(N(Cc2ccccc2)S(=O)(=O)c2cccc(C(=O)O)c2)cc1 [Example 113, 3-(N-Benzyl-N-(4-methoxyphenyl)sulfamoyl) benzoic acid] | 1 to 10
COc1ccccc1N(Cc1ccccc1)S(=O)(=O)c1cccc(C(=O)O)c1 [Example 114, 3-(N-Benzyl-N-(2-methoxyphenyl)sulfamoyl) benzoic acid] | 10 to 30
O=C(O)c1cccc(S(=O)(=O)N(Cc2ccccc2)c2ccc(Cl)cc2)c1 [Example 115, 3-(N-Benzyl-N-(4-chlorophenyl)sulfamoyl) benzoic acid] | 1 to 10
O=C(O)c1cccc(S(=O)(=O)N(Cc2ccccc2)c2ccccc2)c1 [Example 116, 3-(N-Benzyl-N-phenylsulfamoyl)benozic acid] | 10 to 30
O=C(O)c1cc(S(=O)(=O)N(Cc2ccccc2)c2ccccc2)ccc1Cl [Example 117, 5-(N-Benzyl-N-phenylsulfamoyl)-2-chlorobenzoic acid] | 10 to 30
COc1ccccc1N(Cc1ccccc1)S(=O)(=O)c1cc(C(=O)O)ccc1Cl [Example 118, 3-(N-Benzyl-N-(2-methoxyphenyl)sulfamoyl)-4-chlorobenzoic acid] | 1 to 10
COc1ccc(N(Cc2ccccc2)S(=O)(=O)c2ccc(Cl)c(C(=O)O)c2)cc1 [Example 119, 5-(N-Benzyl-N-(4-methoxyphenyl)sulfamoyl)-2-chlorobenzoic acid] | 10 to 30
O=C(O)c1ccc(Cl)c(S(=O)(=O)N(Cc2ccccc2)c2ccccc2Cl)c1 [Example 120, 3-(N-Benzyl-N-(2-chlorophenyl)sulfamoyl)-4-chlorobenzoic acid] | 1 to 10
O=C(O)c1cc(S(=O)(=O)N(Cc2ccccc2)c2ccccc2Cl)ccc1Cl [Example 121, 5-(N-Benzyl-N-(2-chlorophenyl)sulfamoyl)-2-chlorobenzoic acid] | 1 to 10
O=C(O)c1cc(S(=O)(=O)N(Cc2ccccc2)c2ccc(Cl)cc2)ccc1Cl [Example 122, 5-(N-Benzyl-N-(4-chlorophenyl)sulfamoyl)-2-chlorobenzoic acid] | 1 to 10
O=C(O)c1ccc(Cl)c(S(=O)(=O)N(Cc2ccccc2)c2ccc(F)cc2)c1 [Example 123, 3-(N-Benzyl-N-(4-fluorophenyl)sulfamoyl)-4-chlorobenzoic acid] | 10 to 30
COc1ccc(N(Cc2ccccc2)S(=O)(=O)c2cc(C(=O)O)ccc2Cl)cc1 [Example 124, 3-(N-Benzyl-N-(4-methoxyphenyl)sulfamoyl)-4-chlorobenzoic acid] | 1 to 10
CCOc1ccccc1N(Cc1ccc(Cl)cc1)S(=O)(=O)c1cccc(C(=O)O)c1 [Example 125, 3-(N-(4-Chlorobenzyl)-N-(2-ethoxyphenyl)sulfamoyl) benzoic acid] | 1 to 10
O=C(O)c1ccc(Cl)c(S(=O)(=O)N(Cc2ccccc2)c2ccccc2)c1 [Example 126, 3-(N-Benzyl-N-phenylsulfamoyl)-4-chlorobenzoic acid] | 10 to 30
Cc1cc(C)c(S(=O)(=O)N(Cc2ccccc2)c2ccccn2)c(C)c1 [Example 127, N-Benzyl-2,4,6-trimethyl-N-(pyridin-2-yl)benzene-sulfonamide] | 1 to 10
O=S(=O)(c1cccc2cccnc12)N(Cc1ccccc1)c1ccccn1 [Example 128, N-Benzyl-N-(pyridin-2-yl) quinoline-8-sulfonamide] | 1 to 10
O=S(=O)(c1ccc(Cl)cc1)N(Cc1ccccc1)c1ccccn1 [Example 129, N-Benzyl-4-chloro-N-(pyridin-2-yl)benzene-sulfonamide] | 1 to 10
O=[N+]([O-])c1ccc(S(=O)(=O)N(Cc2ccccc2)c2ccccn2)cc1 [Example 130, N-Benzyl-4-nitro-N-(pyridin-2-yl)benzene-sulfonamide] | 1 to 10
